Assay results published in patent US10213433B2 (AbbVie Inc., priority 2010, dated 2019).

What was measured:
Bcl-2 protein = Bcl-2 protein (Homo sapiens (Human), UniProt P10415); test: Bcl-2 binding TR-FRET (Time-Resolved Fluorescence-Resonance-Energy-Transfer) assay; conditions: inhibition constant for binding to Bcl-2 protein
Excerpt: The smaller the Ki value, the greater is the binding affinity.

[1] = log D at pH 7.4 by an HPLC method; format: physicochemical
Excerpt: Table 2 below presents data for log D (a parameter related to lipophilicity) at pH 7.4, as determined by an HPLC method, for representative compounds.

Sequence of Bcl-2 protein (P10415 whole entry): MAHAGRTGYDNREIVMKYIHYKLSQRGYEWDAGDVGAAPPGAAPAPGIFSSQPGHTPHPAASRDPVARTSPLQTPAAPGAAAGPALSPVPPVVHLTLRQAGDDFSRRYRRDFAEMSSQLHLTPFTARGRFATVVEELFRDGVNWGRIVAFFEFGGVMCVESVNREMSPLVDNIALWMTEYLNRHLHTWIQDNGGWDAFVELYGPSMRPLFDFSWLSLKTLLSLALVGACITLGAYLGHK

Row | Structure (SMILES) | chromatographic logD [1] | log D [1] | Ki (Bcl-2 protein) [nM]
1 | CC1(C)CCC(CN2CCN(c3ccc(C(=O)NS(=O)(=O)c4ccc(OCC5CCOCC5)c([N+](=O)[O-])c4)c(Oc4cnc5[nH]ccc5c4)c3)CC2)=C(c2ccc(Cl)cc2)C1 [Compound 24, 4-(4-{[2-(4-chlorophenyl)-4,4-dimethylcyclohex-1-en-1-yl]methyl}piperazin-1-yl)-N-{[3-nitro-4-(tetrahydro-2H-pyran-4-ylmethoxy)phenyl]sulfonyl}-2-(1H-pyrrolo[2,3-b]pyridin-5-yloxy)benzamide] | 5.72 | – | < 0.01
2 | CC1(C)CCC(CN2CCN(c3ccc(C(=O)NS(=O)(=O)c4ccc(OCC5(F)CCOCC5)c([N+](=O)[O-])c4)c(Oc4cnc5[nH]ccc5c4)c3)CC2)=C(c2ccc(Cl)cc2)C1 [Compound 37, 4-(4-{[2-(4-chlorophenyl)-4,4-dimethylcyclohex-1-en-1-yl]methyl}piperazin-1-yl)-N-({4-[(4-fluorotetrahydro-2H-pyran-4-yl)methoxy]-3-nitrophenyl}sulfonyl)-2-(1H-pyrrolo[2,3-b]pyridin-5-yloxy)benzamide] | 5.27 | – | < 0.01
3 | CC1(C)CCC(CN2CCN(c3ccc(C(=O)NS(=O)(=O)c4cnc(OCC5(F)CCOCC5)c(C(F)(F)F)c4)c(Oc4cnc5[nH]ccc5c4)c3)CC2)=C(c2ccc(Cl)cc2)C1 [Compound 208, 4-(4-{[2-(4-chlorophenyl)-4,4-dimethylcyclohex-1-en-1-yl]methyl}piperazin-1-yl)-N-{[6-[(4-fluorotetrahydro-2H-pyran-4-yl)methoxy]-5-(trifluoromethyl)pyridin-3-yl]sulfonyl}-2-(1H-pyrrolo[2,3-b]pyridin-5-yloxy)benzamide] | 5.57 | – | –
4 | CC1(C)CCC(CN2CCN(c3ccc(C(=O)NS(=O)(=O)c4cnc(OCC5(F)CCN(C6COC6)CC5)c(Cl)c4)c(Oc4cnc5[nH]ccc5c4)c3)CC2)=C(c2ccc(Cl)cc2)C1 [Compound 277, N-[(5-chloro-6-{[4-fluoro-1-(oxetan-3-yl)piperidin-4-yl]methoxy}pyridin-3-yl)sulfonyl]-4-(4-{[2-(4-chlorophenyl)-4,4-dimethylcyclohex-1-en-1-yl]methyl}piperazin-1-yl)-2-(1H-pyrrolo[2,3-b]pyridin-5-yloxy)benzamide] | 5.26 | – | < 0.01
5 | CC1(C)CCC(CN2CCN(c3ccc(C(=O)NS(=O)(=O)c4ccc(OCC5(F)CCOCC5)c(Cl)c4)c(Oc4cnc5[nH]ccc5c4)c3)CC2)=C(c2ccc(Cl)cc2)C1 [Compound 286, N-({3-chloro-4-[(4-fluorotetrahydro-2H-pyran-4-yl)methoxy]phenyl}sulfonyl)-4-(4-{[2-(4-chlorophenyl)-4,4-dimethylcyclohex-1-en-1-yl]methyl}piperazin-1-yl)-2-(1H-pyrrolo[2,3-b]pyridin-5-yloxy)benzamide] | 5.66 | – | < 0.01
6 | CC1(C)CCC(CN2CCN(c3ccc(C(=O)NS(=O)(=O)c4ccc(OC[C@H]5CC[C@H](N6CCOCC6)CC5)c(Cl)c4)c(Oc4cnc5[nH]ccc5c4)c3)CC2)=C(c2ccc(Cl)cc2)C1 [Compound 303, N-[(3-chloro-4-{[trans-4-(morpholin-4-yl)cyclohexyl]methoxy}phenyl)sulfonyl]-4-(4-{[2-(4-chlorophenyl)-4,4-dimethylcyclohex-1-en-1-yl]methyl}piperazin-1-yl)-2-(1H-pyrrolo[2,3-b]pyridin-5-yloxy)benzamide] | 6.24 | – | –
7 | CC1(C)CCC(CN2CCN(c3ccc(C(=O)NS(=O)(=O)c4ccc(NCCCN(C5CC5)C5COC5)c([N+](=O)[O-])c4)c(Oc4cnc5[nH]ccc5c4)c3)CC2)=C(c2ccc(Cl)cc2)C1 [Compound 311, 4-(4-{[2-(4-chlorophenyl)-4,4-dimethylcyclohex-1-en-1-yl]methyl}piperazin-1-yl)-N-{[4-({3-[cyclopropyl(oxetan-3-yl)amino]propyl}amino)-3-nitrophenyl]sulfonyl}-2-(1H-pyrrolo[2,3-b]pyridin-5-yloxy)benzamide] | 5.6 | – | < 0.01
8 | CN1CCC[C@H]1C(=O)N1CCC(COc2ccc(S(=O)(=O)NC(=O)c3ccc(N4CCN(CC5=C(c6ccc(Cl)cc6)CC(C)(C)CC5)CC4)cc3Oc3cnc4[nH]ccc4c3)cc2Cl)CC1 [Compound 312, N-[(3-chloro-4-{[1-(1-methyl-L-prolyl)piperidin-4-yl]methoxy}phenyl)sulfonyl]-4-(4-{[2-(4-chlorophenyl)-4,4-dimethylcyclohex-1-en-1-yl]methyl}piperazin-1-yl)-2-(1H-pyrrolo[2,3-b]pyridin-5-yloxy)benzamide] | 6.47 | – | < 0.01

Further lines, with some results ahead:

Row | chromatographic logD [1] | log D [1] | Structure (SMILES) | Ki (Bcl-2 protein) [nM]
9 | 5.17 | – | CC1(C)CCC(CN2CCN(c3ccc(C(=O)NS(=O)(=O)c4ccc(OCC5COCCO5)c([N+](=O)[O-])c4)c(Oc4cnc5[nH]ccc5c4)c3)CC2)=C(c2ccc(Cl)cc2)C1 (stereo not shown) [Compound 12, 4-(4-{[2-(4-chlorophenyl)-4,4-dimethylcyclohex-1-en-1-yl]methyl}piperazin-1-yl)-N-{[4-(1,4-dioxan-2-ylmethoxy)-3-nitrophenyl]sulfonyl}-2-(1H-pyrrolo[2,3-b]pyridin-5-yloxy)benzamide] | < 0.01
10 | 6.21 | – | CC1(C)CCC(CN2CCN(c3ccc(C(=O)NS(=O)(=O)c4ccc(NC5CCN(C6CCOCC6)CC5)c([N+](=O)[O-])c4)c(Oc4ccc5[nH]ccc5c4)c3)CC2)=C(c2ccc(Cl)cc2)C1 [Compound 89, 4-(4-{[2-(4-chlorophenyl)-4,4-dimethylcyclohex-1-en-1-yl]methyl}piperazin-1-yl)-2-(1H-indol-5-yloxy)-N-({3-nitro-4-[(1-tetrahydro-2H-pyran-4-ylpiperidin-4-yl)amino]phenyl}sulfonyl)benzamide] | –
11 | 6.69 | – | CN1CCC(Nc2ccc(S(=O)(=O)NC(=O)c3ccc(N4CCN(CC5=C(c6ccc(Cl)cc6)CC(C)(C)CC5)CC4)cc3Oc3ccc4[nH]ccc4c3)cc2[N+](=O)[O-])CC1 [Compound 90, 4-(4-{[2-(4-chlorophenyl)-4,4-dimethylcyclohex-1-en-1-yl]methyl}piperazin-1-yl)-2-(1H-indol-5-yloxy)-N-({4-[(1-methylpiperidin-4-yl)amino]-3-nitrophenyl}sulfonyl)benzamide] | –
12 | 6.59 | – | CN1CCN(Nc2ccc(S(=O)(=O)NC(=O)c3ccc(N4CCN(CC5=C(c6ccc(Cl)cc6)CC(C)(C)CC5)CC4)cc3Oc3ccc4[nH]ccc4c3)cc2[N+](=O)[O-])CC1 [Compound 91, 4-(4-{[2-(4-chlorophenyl)-4,4-dimethylcyclohex-1-en-1-yl]methyl}piperazin-1-yl)-2-(1H-indol-5-yloxy)-N-({4-[(4-methylpiperazin-1-yl)amino]-3-nitrophenyl}sulfonyl)benzamide] | –
13 | 5.6 | – | CC1(C)CCC(CN2CCN(c3ccc(C(=O)NS(=O)(=O)c4ccc(OCC5COCCO5)c([N+](=O)[O-])c4)c(Oc4ccc5[nH]ccc5c4)c3)CC2)=C(c2ccc(Cl)cc2)C1 (stereo not shown) [Compound 92, 4-(4-{[2-(4-chlorophenyl)-4,4-dimethylcyclohex-1-en-1-yl]methyl}piperazin-1-yl)-N-{[4-(1,4-dioxan-2-ylmethoxy)-3-nitrophenyl]sulfonyl}-2-(1H-indol-5-yloxy)benzamide] | –
14 | 5.92 | – | CC1(C)CCC(CN2CCN(c3ccc(C(=O)NS(=O)(=O)c4ccc(NCC5CCC(F)(F)CC5)c([N+](=O)[O-])c4)c(Oc4cnc5[nH]ccc5c4)c3)CC2)=C(c2ccc(Cl)cc2)C1 [Compound 239, 4-(4-{[2-(4-chlorophenyl)-4,4-dimethylcyclohex-1-en-1-yl]methyl}piperazin-1-yl)-N-[(4-{[(4,4-difluorocyclohexyl)methyl]amino}-3-nitrophenyl)sulfonyl]-2-(1H-pyrrolo[2,3-b]pyridin-5-yloxy)benzamide] | –
15 | 5.51 | – | CC1(C)CCC(CN2CCN(c3ccc(C(=O)NS(=O)(=O)c4cnc(NCC5(F)CCOCC5)c(Cl)c4)c(Oc4cnc5[nH]ccc5c4)c3)CC2)=C(c2ccc(Cl)cc2)C1 [Compound 242, N-[(5-chloro-6-{[(4-fluorotetrahydro-2H-pyran-4-yl)methyl]amino}pyridin-3-yl)sulfonyl]-4-(4-{[2-(4-chlorophenyl)-4,4-dimethylcyclohex-1-en-1-yl]methyl}piperazin-1-yl)-2-(1H-pyrrolo[2,3-b]pyridin-5-yloxy)benzamide] | –
16 | 5.59 | – | CC1(C)CCC(CN2CCN(c3ccc(C(=O)NS(=O)(=O)c4ccc(NC[C@H]5CC[C@H](C#N)CC5)c([N+](=O)[O-])c4)c(Oc4cnc5[nH]ccc5c4)c3)CC2)=C(c2ccc(Cl)cc2)C1 [Compound 276, 4-(4-{[2-(4-chlorophenyl)-4,4-dimethylcyclohex-1-en-1-yl]methyl}piperazin-1-yl)-N-[(4-{[(trans-4-cyanocyclohexyl)methyl]amino}-3-nitrophenyl)sulfonyl]-2-(1H-pyrrolo[2,3-b]pyridin-5-yloxy)benzamide] | –
17 | – | 5.48 | CC1(C)CCC(CN2CCN(c3ccc(C(=O)NS(=O)(=O)c4ccc(NC[C@H]5CC[C@@](C)(O)CC5)c([N+](=O)[O-])c4)c(Oc4cnc5[nH]ccc5c4)c3)CC2)=C(c2ccc(Cl)cc2)C1 [Compound 337, 4-(4-{[2-(4-chlorophenyl)-4,4-dimethylcyclohex-1-en-1-yl]methyl}piperazin-1-yl)-N-[(4-{[(trans-4-hydroxy-4-methylcyclohexyl)methyl]amino}-3-nitrophenyl)sulfonyl]-2-(1H-pyrrolo[2,3-b]pyridin-5-yloxy)benzamide] | –
18 | – | 5.67 | CC1(C)CCC(CN2CCN(c3ccc(C(=O)NS(=O)(=O)c4ccc(NC[C@H]5CC[C@](C)(O)CC5)c([N+](=O)[O-])c4)c(Oc4cnc5[nH]ccc5c4)c3)CC2)=C(c2ccc(Cl)cc2)C1 [Compound 338, 4-(4-{[2-(4-chlorophenyl)-4,4-dimethylcyclohex-1-en-1-yl]methyl}piperazin-1-yl)-N-[(4-{[(cis-4-hydroxy-4-methylcyclohexyl)methyl]amino}-3-nitrophenyl)sulfonyl]-2-(1H-pyrrolo[2,3-b]pyridin-5-yloxy)benzamide] | –
